Laboratory results as given in patent US8524759B2, “Phenylbutazone carrier formulation showing increased bioactivity in animals” (priority 2009, dated 2013).

Assays:
[1] = Bioequivalence test: blood plasma phenylbutazone levels (HPLC) after horses eat the product mixed in grain; format: in vivo, horse; set-up: unit not given here; conditions: 4 g phenylbutazone in grain, oral, average of five horses
Description: The above product mixture was tested for bioequivalency as follows. Three healthy mature geldings and two non-pregnant mares aged 3-15 years with similar weights were chosen for a bioequivalence test. The bioequivalence test was designed to determine the difference in blood plasma absorption between commercially available phenylbutazone tablets and the inventive product mixture described above. […] At five o'clock p.m. the evening before the test, each horse was fed a normal meal consisting of 1 gallon of grain with fourteen percent protein, and ten pounds of alfalfa hay. During the test each horse was stabled separately and had access to drinking water at all times. On test day, each horse was fasted until administration of the test product, and then given a normal meal consisting of one gallon of grain with fourteen percent protein and ten pounds of alfalfa hay five hours post dosing and at twelve and one-half hours after administration. The morning of the test, 4.60 grams of the product from example one containing a total of four grams of phenylbutazone, was added to one half gallon of grain with fourteen percent protein by lightly stifling. Each horse was given 15 minutes to consume the grain. […] Each of the five horses followed this procedure. Two hours following administration a 4.5 cc blood sample was taken from each of the five horses. Thereafter, additional 4.5 cc blood samples were taken at half-hour intervals until the sixth hour. After the sixth hour 4.5 cc blood samples were taken hourly until the eighth hour. […] The blood samples were taken with a 20 gauge one inch needle and promptly put into a green CST Lithium Heparin tubes and cooled in ice water at 36 degrees F. When each sample was collected, the blood sample was spun to separate the blood plasma from each sample. The separated blood plasma was placed in a freezer for twenty-four hours at 20 below zero. After twenty-four hours, the blood plasma was thawed to room temperature and phenylbutazone levels were quantified for each sample by a validated HPLC method. Two weeks later after completing a wash out period, the same three healthy mature geldings and two non-pregnant mares aged 3-15 years with similar weights were used for a cross over bioequivalence test. This bioequivalence test was to determine the concentration levels in blood plasma absorption of commercially available phenylbutazone tablets. […] At five o'clock p.m. the evening before the test, each horse was fed a normal meal consisting of 1 gallon of grain with fourteen percent protein, and ten pounds of alfalfa hay. During the test each horse was stabled separately and had access to drinking water at all times. On test day, each horse was fasted until administration of the test product (4 grams of crushed active ingredient phenylbutazone in tablets), and then given a normal meal consisting of one gallon of grain with fourteen percent protein and ten pounds of alfalfa hay five hours post dosing, and at twelve and one-half hours after administration. The morning of the test, four 1 gram tablets of the commercially available phenylbutazone were crushed in to a fine powder, and were added to one half gallon of grain with fourteen percent protein by lightly stifling for each horse. Each horse was given 15 minutes to consume the grain. […] Each of the five horses followed this procedure. Two hours following administration a 4.5 cc blood sample was taken from each of the five horses. Thereafter, additional 4.5 cc blood samples were taken at half-hour intervals until the sixth hour. After the sixth hour 4.5 cc blood samples were taken hourly until the eighth hour. […] The blood samples were taken with a 20 gauge one inch needle and promptly put into a green CST Lithium Heparin tubes and cooled in ice water at 36 degrees F. When each sample was collected, the blood sample was spun to separate the blood plasma from each sample. The separated blood plasma was placed in a freezer for twenty-four hours at 20 below zero. […]

[2] = oral administration; cited from earlier work

blood plasma concentration of phenylbutazone ([1]; 2 hours after eating): 5.0 | blood plasma concentration of phenylbutazone ([1]; 3 hours after eating): 6.0 | blood plasma concentration of phenylbutazone ([1]; 4 hours after eating): 8.5 | blood plasma concentration of phenylbutazone ([1]; 5 hours after eating): 10.1 | blood plasma concentration of phenylbutazone ([1]; 6 hours after eating): 12.0 | blood plasma concentration of phenylbutazone ([1]; 7 hours after eating): 13.0 | blood plasma concentration of phenylbutazone ([1]; 8 hours after eating): 12.14 | blood plasma concentration of phenylbutazone ([1]; 10 hours after eating): 9.9 | blood plasma concentration of phenylbutazone ([1]; 12 hours after eating): 7.3 | blood plasma concentration of phenylbutazone ([1]; 18 hours after eating): 4.18
SMILES: CCCCC1C(=O)N(c2ccccc2)N(c2ccccc2)C1=O [Pure Phenylbutazone, 4-butyl-diphenyl-3,5-pyrazoidinedione]
time required to achieve an effective concentration level [2]: 3 to 5 h
